Test results taken from paper PMC12090182, “Repurposing of the RIPK1-Selective Benzo[1,4]oxazepin-4-one Scaffold for the Development of a Type III LIMK1/2 Inhibitor” (ACS Chemical Biology, 2025).
Like-named read-outs stand apart in the source and are kept apart here.

Experiments:
U2OS cells = assay type: cell-based; settings: U2OS
Method in brief: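 HEK293T and U2OS cells (DMEM) and MRC-9 fibroblasts (EMEM) exposed to compounds at 1 and 10 μM. Live-cell confocal imaging of cell shape and fluorescence before and at 12, 24 and 48 h. Normalized to 0.1% DMSO; biological duplicates with SEM.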

CSNK2A2 = CSNK2A2 (Homo sapiens, UniProt P19784); assay: DSF selectivity screening; assay type: binding; settings: 10 μM compound
Chain of CSNK2A2 (P19784 1-334): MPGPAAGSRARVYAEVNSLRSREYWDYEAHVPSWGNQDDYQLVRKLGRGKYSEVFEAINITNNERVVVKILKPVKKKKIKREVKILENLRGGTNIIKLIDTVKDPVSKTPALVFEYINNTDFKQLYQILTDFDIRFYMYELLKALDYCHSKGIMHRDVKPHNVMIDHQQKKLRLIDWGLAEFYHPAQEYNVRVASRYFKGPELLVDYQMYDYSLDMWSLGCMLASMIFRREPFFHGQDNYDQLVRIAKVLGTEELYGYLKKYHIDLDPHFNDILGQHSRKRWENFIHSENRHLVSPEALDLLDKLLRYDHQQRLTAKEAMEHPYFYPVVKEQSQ
Method: The assay was performed as previously described.[29],[35] Briefly, recombinant protein kinase domains at a concentration of 2 μM were mixed with a 10 μM compound in a buffer containing 20 mM HEPES, pH 7.5, and 500 mM NaCl. SYPRO Orange (5000×, Invitrogen) was added as a fluorescence probe (1 μL per mL). Subsequently, temperature-dependent protein unfolding profiles were measured using a QuantStudio 5 real-time PCR machine (Thermo Fisher). Excitation and emission filters were set to 465 and 590 nm, respectively. The temperature was raised with a step rate of 3 °C per minute. Data points were analyzed with internal software (Thermal Shift Software version 1.4, Thermo Fisher) using the Boltzmann equation to determine the inflection point of the transition curve (Table S4).

## CN1C(=O)[C@@H](N2CCc3c(nn(Cc4ccccc4)c3C(N)=O)C2=O)COc2cc(Cl)ccc21 [Compound 10, (S)-2-benzyl-6-(8-chloro-5-methyl-4-oxo-2,3,4,5-tetrahydrobenzo[b][1,4]oxazepin-3-yl)-7-oxo-4,5,6,7-tetrahydro-2H-pyrazolo[3,4-c]pyridine-3-carboxamide]
U2OS cells; 1 µM, 0 h, replicate 1
  Cell count normalized to cells treated with DMSO control: 1.139
  Cell count per well: 237
  Population Fragmented Nuclei (%): 37.05%
  Population Healthy Nuclei (%): 52.23%
  Population Pyknosed Nuclei (%): 10.71%
  Population apoptotic cell (%): 66.67%
  Population cell that influence microtubule strucutre (%): 2.56%
  Population with increased mitochondrial mass (%): 0.85%
  Population with membrane disruption (%): 5.98%
U2OS cells; 1 µM, 0 h, replicate 2
  Cell count normalized to cells treated with DMSO control: 0.8633
  Cell count per well: 74
  Population Fragmented Nuclei (%): 16.44%
  Population Healthy Nuclei (%): 79.45%
  Population Pyknosed Nuclei (%): 4.11%
  Population apoptotic cell (%): 33.33%
  Population cell that influence microtubule strucutre (%): 1.72%
  Population with increased mitochondrial mass (%): 1.72%
  Population with membrane disruption (%): 3.45%
U2OS cells; 1 µM, 12 h, replicate 1
  Cell count normalized to cells treated with DMSO control: 1.055
  Cell count per well: 279
  Population Fragmented Nuclei (%): 23.90%
  Population Healthy Nuclei (%): 65.44%
  Population Pyknosed Nuclei (%): 10.66%
  Population apoptotic cell (%): 75.86%
  Population cell that influence microtubule strucutre (%): 2.81%
  Population with increased mitochondrial mass (%): 1.69%
  Population with membrane disruption (%): 7.87%
U2OS cells; 1 µM, 12 h, replicate 2
  Cell count normalized to cells treated with DMSO control: 0.9215
  Cell count per well: 109
  Population Fragmented Nuclei (%): 11.11%
  Population Healthy Nuclei (%): 84.26%
  Population Pyknosed Nuclei (%): 4.63%
  Population apoptotic cell (%): 80.00%
  Population cell that influence microtubule strucutre (%): 2.20%
  Population with increased mitochondrial mass (%): 2.20%
  Population with membrane disruption (%): 3.30%
U2OS cells; 1 µM, 24 h, replicate 1
  Cell count normalized to cells treated with DMSO control: 1.136
  Cell count per well: 354
  Population Fragmented Nuclei (%): 25.72%
  Population Healthy Nuclei (%): 65.90%
  Population Pyknosed Nuclei (%): 8.38%
  Population apoptotic cell (%): 82.76%
  Population cell that influence microtubule strucutre (%): 4.39%
  Population with increased mitochondrial mass (%): 2.63%
  Population with membrane disruption (%): 7.02%
U2OS cells; 1 µM, 24 h, replicate 2
  Cell count normalized to cells treated with DMSO control: 0.9633
  Cell count per well: 137
  Population Fragmented Nuclei (%): 12.50%
  Population Healthy Nuclei (%): 81.62%
  Population Pyknosed Nuclei (%): 5.88%
  Population apoptotic cell (%): 87.50%
  Population cell that influence microtubule strucutre (%): 1.80%
  Population with increased mitochondrial mass (%): 1.80%
  Population with membrane disruption (%): 3.60%
U2OS cells; 1 µM, 48 h, replicate 1
  Cell count normalized to cells treated with DMSO control: 1.128
  Cell count per well: 502
  Population Fragmented Nuclei (%): 21.34%
  Population Healthy Nuclei (%): 69.72%
  Population Pyknosed Nuclei (%): 8.94%
  Population apoptotic cell (%): 86.36%
  Population cell that influence microtubule strucutre (%): 2.04%
  Population with increased mitochondrial mass (%): 3.21%
  Population with membrane disruption (%): 6.41%
U2OS cells; 1 µM, 48 h, replicate 2
  Cell count normalized to cells treated with DMSO control: 0.973
  Cell count per well: 201
  Population Fragmented Nuclei (%): 6.57%
  Population Healthy Nuclei (%): 83.33%
  Population Pyknosed Nuclei (%): 10.10%
  Population apoptotic cell (%): 85.00%
  Population cell that influence microtubule strucutre (%): 1.82%
  Population with increased mitochondrial mass (%): 2.42%
  Population with membrane disruption (%): 4.85%
U2OS cells; 1 μM
  cytotoxicity: no cytotoxicity
U2OS cells; 10 µM, 0 h, replicate 1
  Cell count normalized to cells treated with DMSO control: 1.1102
  Cell count per well: 231
  Population Fragmented Nuclei (%): 38.84%
  Population Healthy Nuclei (%): 51.34%
  Population Pyknosed Nuclei (%): 9.82%
  Population apoptotic cell (%): 95.45%
  Population cell that influence microtubule strucutre (%): 3.48%
  Population with increased mitochondrial mass (%): 3.48%
  Population with membrane disruption (%): 6.09%
U2OS cells; 10 µM, 0 h, replicate 2
  Cell count normalized to cells treated with DMSO control: 1.062
  Cell count per well: 91
  Population Fragmented Nuclei (%): 26.19%
  Population Healthy Nuclei (%): 64.29%
  Population Pyknosed Nuclei (%): 9.52%
  Population apoptotic cell (%): 100.00%
  Population cell that influence microtubule strucutre (%): 3.70%
  Population with increased mitochondrial mass (%): 3.70%
  Population with membrane disruption (%): 7.41%
U2OS cells; 10 µM, 12 h, replicate 1
  Cell count normalized to cells treated with DMSO control: 1.017
  Cell count per well: 269
  Population Fragmented Nuclei (%): 26.62%
  Population Healthy Nuclei (%): 63.50%
  Population Pyknosed Nuclei (%): 9.89%
  Population apoptotic cell (%): 73.08%
  Population cell that influence microtubule strucutre (%): 4.19%
  Population with increased mitochondrial mass (%): 6.59%
  Population with membrane disruption (%): 8.38%
U2OS cells; 10 µM, 12 h, replicate 2
  Cell count normalized to cells treated with DMSO control: 0.9722
  Cell count per well: 115
  Population Fragmented Nuclei (%): 22.52%
  Population Healthy Nuclei (%): 63.96%
  Population Pyknosed Nuclei (%): 13.51%
  Population apoptotic cell (%): 100.00%
  Population cell that influence microtubule strucutre (%): 7.04%
  Population with increased mitochondrial mass (%): 9.86%
  Population with membrane disruption (%): 7.04%
U2OS cells; 10 µM, 24 h, replicate 1
  Cell count normalized to cells treated with DMSO control: 0.9881
  Cell count per well: 308
  Population Fragmented Nuclei (%): 23.59%
  Population Healthy Nuclei (%): 66.78%
  Population Pyknosed Nuclei (%): 9.63%
  Population apoptotic cell (%): 96.55%
  Population cell that influence microtubule strucutre (%): 6.97%
  Population with increased mitochondrial mass (%): 4.98%
  Population with membrane disruption (%): 5.97%
U2OS cells; 10 µM, 24 h, replicate 2
  Cell count normalized to cells treated with DMSO control: 0.886
  Cell count per well: 126
  Population Fragmented Nuclei (%): 18.18%
  Population Healthy Nuclei (%): 71.90%
  Population Pyknosed Nuclei (%): 9.92%
  Population apoptotic cell (%): 100.00%
  Population cell that influence microtubule strucutre (%): 6.90%
  Population with increased mitochondrial mass (%): 6.90%
  Population with membrane disruption (%): 10.34%
U2OS cells; 10 µM, 48 h, replicate 1
  Cell count normalized to cells treated with DMSO control: 0.9437
  Cell count per well: 420
  Population Fragmented Nuclei (%): 19.22%
  Population Healthy Nuclei (%): 67.40%
  Population Pyknosed Nuclei (%): 13.38%
  Population apoptotic cell (%): 90.91%
  Population cell that influence microtubule strucutre (%): 3.61%
  Population with increased mitochondrial mass (%): 3.97%
  Population with membrane disruption (%): 5.78%
U2OS cells; 10 µM, 48 h, replicate 2
  Cell count normalized to cells treated with DMSO control: 0.7019
  Cell count per well: 145
  Population Fragmented Nuclei (%): 21.28%
  Population Healthy Nuclei (%): 65.96%
  Population Pyknosed Nuclei (%): 12.77%
  Population apoptotic cell (%): 83.33%
  Population cell that influence microtubule strucutre (%): 7.53%
  Population with increased mitochondrial mass (%): 7.53%
  Population with membrane disruption (%): 15.05%
U2OS cells; 1 μM (Figure 6)
  impact on tubulin, mitochondrial mass, and cellular permeability in healthy cells: comparable to that of the 0.1% DMSO control
CSNK2A2
  ΔTm at 10 µM: 2.3 °C
